Data on one compound can be found in PMC5987058, “Therapeutic Potential of a Scorpion Venom-Derived Antimicrobial Peptide and Its Homologs Against Antibiotic-Resistant Gram-Positive Bacteria” (Frontiers in Microbiology, 2018).

In assay [1] the test system is Bacillus subtilis AB91021. As to conditions: comparison values; ref Zeng et al., 2004, 2012; Cao et al., 2012a; cited from earlier work. An excerpt:
Table 1 In Vitro antimicrobial activities of marcin-18 and its homologs compared with other peptides and antibiotics. | column: MIC (μM) / BmKn2; MIC (μM) / BmKb1; MIC (μM) / Kana

Assay [2] concerns Staphylococcus aureus AB94004. Kind of assay: MIC, broth microdilution. As to conditions: legend of Figure 6. Format: cell-based. How it is done:
The antimicrobial activity was determined via a broth microdilution assay according to the procedure recommended by the Clinical and Laboratory Standards Institute with some modifications ([Hou et al., 2011]; [Li et al., 2016]). Bacteria were cultured in Luria-Bertani (LB) broth to OD600 = 0.6 at 37°C, then diluted to 10^5–10^6 CFU/mL in LB medium. Peptides were serially double diluted to a gradient concentration range from 48.3 to 1.5 μM in physiological saline. Eighty microliters of the bacterial suspension and 20 μL of diluted peptide at varying concentrations were added to 96-well plates, and then incubated for 16–18 h at 37°C with continuous shaking at 250 rpm. The antimicrobial activity of ampicillin and kanamycin were also tested as positive controls. Experiments were performed in triplicate. The minimum inhibitory concentration (MIC) was determined as the lowest peptide concentration at which no bacterial growth was observed.

Assay [3] deals with Staphylococcus aureus ATCC25923. As to conditions: comparison values; ref Zeng et al., 2004, 2012; Cao et al., 2012a; cited from earlier work. The source says:
Table 1 In Vitro antimicrobial activities of marcin-18 and its homologs compared with other peptides and antibiotics. | column: MIC (μM) / BmKn2; MIC (μM) / Kana

Assay [4] concerns Staphylococcus aureus AB94004. As to conditions: comparison values; ref Zeng et al., 2004, 2012; Cao et al., 2012a; cited from earlier work. The source says: (§1) Table 1 In Vitro antimicrobial activities of marcin-18 and its homologs compared with other peptides and antibiotics. | column: MIC (μM) / BmKn2; MIC (μM) / Amp; MIC (μM) / Kana
The test system of assay [5] is Escherichia coli ATCC25922. As to conditions: comparison values; ref Zeng et al., 2004, 2012; Cao et al., 2012a; cited from earlier work.
Description: as §1

≈ marks a conversion by molar mass, not a printed value.

Regarding `NC[C@H]1O[C@H](O[C@H]2[C@H](O)[C@@H](O[C@H]3O[C@H](CO)[C@@H](O)[C@H](N)[C@H]3O)[C@H](N)C[C@@H]2N)[C@H](O)[C@@H](O)[C@@H]1O` [Kana, kanamycin], the MIC in assay [1] was 42.9 µM (≈ 20.8 µg/mL); in assay [3], 10.7 µM (≈ 5.18 µg/mL); in assay [4], 5.4 µM (≈ 2.62 µg/mL); in assay [5], 21.5 µM (≈ 10.4 µg/mL). Further, in assay [2], the “MIC of control substances” value worked out at 5.4 µM.
